Experimental data published in article PMC10740580, “Benzothiazole-Phthalimide Hybrids as Anti-Breast Cancer and Antimicrobial Agents” (Antibiotics, 2023).
In brackets after ≈: the same amount, converted by molar mass.

Assays:
MCF-7 cells = experiment: MTT cell viability assay, MCF-7; format: cell-based, human; conditions: mean ± SD; for IC50: Homo sapiens, MCF7, 72 h exposure
Experimental: (§1) The anticancer activity of the studied compounds (3a–h) was explored with regards to two human breast cancer cell lines, namely the estrogen receptor positive (ER+) MCF-7 cells and the triple negative MDA-MB-231 cells (ER-, PR-, and HER-2/Neu-). Cells were continuously exposed to the test substances for 72 h, after which their viability was assessed by means of the MTT assay. Table 2 lists the determined IC50 values for the investigated substances and the reference drug, thalidomide. […] Additionally, the same test for all the compounds has been performed on nonmalignant breast epithelial cells (MCF-10A) to ascertain their potential cytotoxicity.
(§2) The four cell lines used in this work (MCF-7, MDA-MB-231, MCF-10A, and 3T3-L1) were obtained from the American Type Culture Collection (ATCC, Manassas, VA, USA). All cell lines were maintained at 37 °C in a humidified atmosphere of 95% air and 5% CO2 and periodically screened for contamination. MCF-7, human breast cancer cells estrogen receptor (ER)-positive, and human breast cancer triple negative MDA-MB231 were grown in DMEM-F12 medium containing 2 mmol/L L-glutamine, 1 mg/mL penicillin–streptomycin, and 5% newborn calf serum (NCS) or 5% fetal bovine serum (FBS), respectively. MCF-10A human mammary epithelial cells were cultured in DMEM/F12 medium, supplemented with 5% horse serum (HS) (Eurobio, Les Ullis, Cedex, France), 100 U/mL penicillin/streptomycin, […], 20 ng/mL hEGF (human epidermal growth factor), […], and […] (Sigma-Aldrich, Milano, Italy). BALB/3T3 murine fibroblast cells were cultured in DMEM high glucose supplemented with 10% bovine calf serum (BCS), 1% L-glutamine, and 100 U/mL penicillin/streptomycin.
(§3) Cell viability was evaluated by means of the 3-(4,5-dimethylthiazol-2-y1)-2,5-diphenyltetra zolium bromide (MTT, Sigma-Aldrich, Milan, Italy) assay. On 48-well plates, cells were seeded, and they were cultured in complete medium. Before being treated, cells were starved in serum-free medium for 24 h to allow cell cycle synchronization. Subsequently, cells were exposed to increasing doses of each compound for 72 h in phenol-red-free media supplemented with 1% serum before fresh MTT was added to each well (final concentration: 0.5 mg/mL). Cells were lysed with DMSO after 2 h of incubation at 37 °C, and optical density at 570 nm was then determined with a microplate reader. Using GraphPad Prism 9 software (GraphPad Inc., San Diego, CA, USA), the mean absorbance for each sample was expressed as a percentage over the control and plotted vs. drug concentrations to establish the IC50 values. The given standard deviations (SDs) are indicative of three separate tests carried out in triplicate.

[1] = system: Staphylococcus aureus 43300; experiment: Broth microdilution, S. aureus ATCC 43300; format: cell-based; conditions: 24 h, 37 °C, methicillin-resistant
From the text: (§4) Compounds 3a–h were examined in accordance with the Clinical Laboratory Standards Institute (CLSI) recommendations, by means of the broth microdilution method, against gram-positive bacteria (Staphylococcus aureus 25923, Staphylococcus aureus 29213, Staphylococcus aureus 43300, Enterococcus faecalis 29212) and gram-negative bacteria (Escherichia coli 25922, Klebsiella pneumoniae 13883, Pseudomonas aeruginosa 27853) belonging to the ATCC collection, using levofloxacin as a reference drug. Table 3 lists the results, expressed as MIC (µg/mL). […] The lack of activity observed for compound 3d could be conceivably due to its poor solubility in the culture medium containing the inoculum.
(§5) Following the recommendations of the CLSI (Clinical and Laboratory Standards Institute, 2012), the broth microdilution method was used to determine the in vitro minimum inhibitory concentrations (MICs, µg/mL).. The concentration of the investigated compounds was set to its highest value to create stock solutions. Then, the stock solutions were diluted 1:10 with Cation-Adjusted Mueller Hinton Broth (Oxoid, Milan, Italy). After that, a series of concentrations from 512 µg/mL to […] were obtained in the wells by performing two-fold serial dilutions in the appropriate test medium. The diluent used to create the stock solution was 100% DMSO. We used the following bacterial strains from the ATCC collection that were available as freeze-dried discs: gram-positive strains such as S. aureus ATCC 25923, 29213, and 43300, and E. faecalis ATCC 29212, and gram-negative ones such as E. coli ATCC 25922, K. pneuomoniae ATCC 13883, and P. aeruginosa ATCC 27853. To preserve the purity of cultures and to allow their reproducibility, cryovials of all microbial strains were set up in the medium and stored at −80 °C. Mueller Hinton Broth (MHB) was used to prepare pre-cultures of each bacterial strain, which were then incubated for 3–5 h at 37 °C. In accordance with CLSI procedure M7-A9, the turbidity of the bacterial cell suspension was calibrated to 0.5 McFarland Standard using a spectrophotometric approach (OD625 nm 0.08–0.10). The standardized suspension was then further diluted (1:100) with MHB to reach 1–2 × 10^6 CFU/mL. A 200 µL aliquot of the final inoculum was inserted into each well. As a control for growth, several wells containing only inoculated broth were prepared. The plates were incubated at 37 °C for 24 h, and the MIC values were calculated as the lowest concentration of compounds at which there was no optically detectable bacteria growth. Each experiment was carried out in duplicate and repeated twice to determine the MICs. Levofloxacin served as the study’s standard reference antibiotic. Additionally, the antibacterial activity of DMSO alone (used as a diluent for the investigated compounds) was examined; therefore, volumes of this solvent with a concentration of less than 5% were utilized throughout the experimentation.

[2] = system: Acinetobacter baumanii 19606; experiment: Broth microdilution, A. baumanii 19606; format: cell-based; conditions: Acinetobacter baumannii, 24 h, 37 °C, read-out: MIC A.b. 19606
[3] = system: Staphylococcus aureus 25923; experiment: Broth microdilution, S. aureus ATCC 25923; format: cell-based; conditions: 37 °C; for MIC: Staphylococcus aureus, 25923, 24 h
From the text: as §4, §5

[4] = system: Klebsiella pneumoniae 13883; experiment: Broth microdilution, K. pneumoniae ATCC 13883; format: cell-based; conditions: 24 h, 37 °C, read-out: MIC K.p. 13883
From the text: as §4, §5

MDA-MB-231 cells = experiment: MTT cell viability assay, MDA-MB-231; format: cell-based, human; conditions: mean ± SD; for IC50: Homo sapiens, MDA-MB-231, 72 h exposure
Experimental: as §1, §2, §3

MCF-10A cells = experiment: MTT cell viability assay, nonmalignant MCF-10A; format: cell-based; conditions: Homo sapiens, 72 h exposure, nonmalignant breast epithelial cells, mean ± SD, read-out: IC50 MCF10-A
Experimental: as §1, §2, §3

[5] = system: Pseudomonas aeruginosa 27853; experiment: Broth microdilution, P. aeruginosa ATCC 27853; format: cell-based; conditions: 24 h, 37 °C
From the text: as §4, §5

Escherichia coli 25922 = experiment: Broth microdilution, E. coli ATCC 25922; format: cell-based; conditions: 24 h, 37 °C
From the text: as §4, §5

Row | SMILES | IC50 (MCF-7 cells) [µM] | MIC [1] [µg/mL] | MIC [2] [µg/mL] | MIC [3] [µg/mL] | MIC [4] [µg/mL] | melting point [°C] | IC50 (MDA-MB-231 cells) [µM] | IC50 (MCF-10A cells) [µM] | MIC [5] [µg/mL] | MIC (Escherichia coli 25922) [µg/mL] | MIC S.a. 25923 ([3]; 24 h) [µg/mL] | IC50 MCF-7 (MCF-7 cells; 72 h exposure) | IC50 MDA-MB-231 (MDA-MB-231 cells; 72 h exposure)
1 | COc1cc2nc(N3C(=O)c4ccccc4C3=O)sc2cc1OC [3f, 2-[5,6-Dimethoxy-1,3-benzothiazol-2-yl]-1H-isoindole-1,3(2H)-dione] | 93 ± 1.4 | 32 (≈ 94 µM) | 64 (≈ 188 µM) | 32 (≈ 94 µM) | 64 (≈ 188 µM) | > 250 | 49.6 ± 1 | > 500 | 64 (≈ 188 µM) | 32 (≈ 94 µM) |  |  | 
2 | O=C1c2ccccc2C(=O)N1c1nc2ccccc2s1 [3a, 2-(1,3-benzothiazol-2-yl)-1H-isoindole-1,3(2H)-dione] | 165.5 ± 1.1 | 64 (≈ 228 µM) | 64 (≈ 228 µM) | 64 (≈ 228 µM) | 128 (≈ 457 µM) | 249 to 250 | 81.8 ± 0.8 | > 500 | 64 (≈ 228 µM) | 64 (≈ 228 µM) |  |  | 
3 | O=C1c2ccccc2C(=O)N1c1nc2ccc(F)cc2s1 [3b, 2-(6-Fluoro-1,3-benzothiazol-2-yl)-1H-isoindole-1,3(2H)-dione] | 91.5 ± 0.6 | 64 (≈ 215 µM) | 128 (≈ 429 µM) | 64 (≈ 215 µM) | 128 (≈ 429 µM) | 234 to 235 | 71.2 ± 1 | 151.9 ± 1.1 | 64 (≈ 215 µM) | 64 (≈ 215 µM) |  |  | 
4 | Cc1ccc2nc(N3C(=O)c4ccccc4C3=O)sc2c1 [3d, 2-[6-Methyl-1,3-benzothiazol-2-yl]-1H-isoindole-1,3(2H)-dione] | 66 ± 1.2 | > 512 | > 512 | > 512 | > 512 | > 250 | 202.6 ± 0.6 | > 500 | > 512 | > 512 |  |  | 
5 | O=C1c2ccccc2C(=O)N1c1nc2ccc(Oc3ccccc3)cc2s1 [3h, 2-[6-Phenoxy-1,3-benzothiazol-2-yl]-1H-isoindole-1,3(2H)-dione] | 26.2 ± 0.9 | 32 (≈ 85.9 µM) | 32 (≈ 85.9 µM) | 16 (≈ 43 µM) | 32 (≈ 85.9 µM) |  | 14 ± 0.5 | 193.9 ± 1 | 32 (≈ 85.9 µM) | 32 (≈ 85.9 µM) | 16 (≈ 43 µM) |  | 
6 | O=C1c2ccccc2C(=O)N1c1nc2ccc(C(F)(F)F)cc2s1 [3c, 2-[6-Trifluoromethyl-1,3-benzothiazol-2-yl]-1H-isoindole-1,3(2H)-dione] | > 500 | 64 (≈ 184 µM) | 128 (≈ 367 µM) | 128 (≈ 367 µM) | 128 (≈ 367 µM) |  | > 500 | > 500 | 128 (≈ 367 µM) | 128 (≈ 367 µM) |  | did not possess any activity | did not possess any activity
7 | O=C1c2ccccc2C(=O)N1c1nc2ccc(O)cc2s1 [3g, 2-[6-Hydroxy-1,3-benzothiazol-2-yl]-1H-isoindole-1,3(2H)-dione] | 71.2 ± 0.7 | 32 (≈ 108 µM) | 64 (≈ 216 µM) | 32 (≈ 108 µM) | 64 (≈ 216 µM) | > 250 | 63.3 ± 0.7 | > 500 | 64 (≈ 216 µM) | 64 (≈ 216 µM) |  |  | 
8 | COc1ccc2nc(N3C(=O)c4ccccc4C3=O)sc2c1 [3e, 2-[6-Methoxy-1,3-benzothiazol-2-yl]-1H-isoindole-1,3(2H)-dione] | 223.1 ± 0.9 | 32 (≈ 103 µM) | 64 (≈ 206 µM) | 32 (≈ 103 µM) | 64 (≈ 206 µM) | 227 to 229 | 102.8 ± 0.9 | > 500 | 64 (≈ 206 µM) | 64 (≈ 206 µM) |  |  | 
